What all share (assay type): biochemical
For one assay, the target named is PI3K α (Homo sapiens (Human), UniProt P42336). Description: PI 3-Kinase (human) HTRF assay, p110α/p85α. On the technique in general: TR-FRET usually uses a lanthanide donor and a delayed reading to cut background.
Another assay has as its target PI3K β (Homo sapiens (Human), UniProt P42338). Description: PI 3-Kinase (human) HTRF assay, p110β/p85α.
The next assay deals with PI3K δ (Homo sapiens (Human), UniProt O00329). Description: PI 3-Kinase (human) HTRF assay, p110δ/p85α.
PI3K δ, sequence (O00329 whole entry): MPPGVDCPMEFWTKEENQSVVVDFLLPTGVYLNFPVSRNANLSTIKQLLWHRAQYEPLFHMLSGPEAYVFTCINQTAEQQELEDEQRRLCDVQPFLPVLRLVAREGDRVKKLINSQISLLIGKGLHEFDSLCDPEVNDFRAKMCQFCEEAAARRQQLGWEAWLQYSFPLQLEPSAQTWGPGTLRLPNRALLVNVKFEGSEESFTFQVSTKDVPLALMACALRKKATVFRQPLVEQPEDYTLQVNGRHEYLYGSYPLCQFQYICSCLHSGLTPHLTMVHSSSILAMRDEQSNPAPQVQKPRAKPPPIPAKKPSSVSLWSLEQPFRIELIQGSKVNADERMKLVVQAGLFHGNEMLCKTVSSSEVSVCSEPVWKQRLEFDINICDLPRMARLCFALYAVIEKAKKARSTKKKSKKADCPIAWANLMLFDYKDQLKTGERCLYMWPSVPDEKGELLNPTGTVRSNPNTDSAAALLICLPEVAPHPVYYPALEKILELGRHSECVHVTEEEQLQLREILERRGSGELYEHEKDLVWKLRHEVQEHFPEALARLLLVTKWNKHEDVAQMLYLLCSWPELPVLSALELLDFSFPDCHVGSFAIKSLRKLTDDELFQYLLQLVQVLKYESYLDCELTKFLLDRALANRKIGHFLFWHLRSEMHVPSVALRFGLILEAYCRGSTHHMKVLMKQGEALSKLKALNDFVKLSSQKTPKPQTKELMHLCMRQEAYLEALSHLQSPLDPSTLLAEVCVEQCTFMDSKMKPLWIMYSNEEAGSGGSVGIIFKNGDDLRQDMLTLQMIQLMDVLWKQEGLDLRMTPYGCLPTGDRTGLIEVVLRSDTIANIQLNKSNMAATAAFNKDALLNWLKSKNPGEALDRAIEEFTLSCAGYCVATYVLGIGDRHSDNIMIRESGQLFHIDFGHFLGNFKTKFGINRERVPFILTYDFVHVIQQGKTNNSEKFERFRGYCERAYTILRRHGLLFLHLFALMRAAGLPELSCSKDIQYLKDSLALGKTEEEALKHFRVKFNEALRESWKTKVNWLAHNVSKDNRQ
PI3K δ, sequence (P27986 whole entry partner): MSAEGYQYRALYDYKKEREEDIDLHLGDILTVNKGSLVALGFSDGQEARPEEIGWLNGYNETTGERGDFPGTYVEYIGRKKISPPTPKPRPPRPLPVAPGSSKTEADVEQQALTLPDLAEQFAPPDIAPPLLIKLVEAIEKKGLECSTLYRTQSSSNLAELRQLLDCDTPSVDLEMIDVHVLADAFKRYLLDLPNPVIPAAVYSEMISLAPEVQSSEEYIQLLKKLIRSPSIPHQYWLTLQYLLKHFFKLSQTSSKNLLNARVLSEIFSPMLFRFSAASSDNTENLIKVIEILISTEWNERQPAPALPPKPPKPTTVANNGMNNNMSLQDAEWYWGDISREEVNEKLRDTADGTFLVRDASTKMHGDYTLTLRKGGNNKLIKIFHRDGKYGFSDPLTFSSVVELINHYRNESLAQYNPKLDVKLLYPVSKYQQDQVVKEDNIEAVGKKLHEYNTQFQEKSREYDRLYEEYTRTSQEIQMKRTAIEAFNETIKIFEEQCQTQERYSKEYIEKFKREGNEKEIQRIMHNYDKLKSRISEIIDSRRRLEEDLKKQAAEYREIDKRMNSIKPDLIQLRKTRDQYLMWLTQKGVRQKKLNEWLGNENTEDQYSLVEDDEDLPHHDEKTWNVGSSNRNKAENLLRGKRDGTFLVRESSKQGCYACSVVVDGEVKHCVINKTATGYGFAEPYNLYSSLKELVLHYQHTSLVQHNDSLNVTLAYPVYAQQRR
The next assay addresses PI3K γ (Homo sapiens (Human), UniProt P48736). Description: PI 3-Kinase (human) HTRF assay, p110γ. As to conditions: read-out: PI3K γ IC50.

pIC50: −log10 of the molar value. A value given as a limit tells only on which side of the number the result lay.

This passage reports IC50 results from patent US9682141B2, “Combination of kinase inhibitors and uses thereof” (INTELLIKINE LLC, priority 2011, dated 2017).

In general, pIC50 refers to −log10 of the IC50, conventionally taken in molar units.

PI3K β, sequence (P42338 whole entry): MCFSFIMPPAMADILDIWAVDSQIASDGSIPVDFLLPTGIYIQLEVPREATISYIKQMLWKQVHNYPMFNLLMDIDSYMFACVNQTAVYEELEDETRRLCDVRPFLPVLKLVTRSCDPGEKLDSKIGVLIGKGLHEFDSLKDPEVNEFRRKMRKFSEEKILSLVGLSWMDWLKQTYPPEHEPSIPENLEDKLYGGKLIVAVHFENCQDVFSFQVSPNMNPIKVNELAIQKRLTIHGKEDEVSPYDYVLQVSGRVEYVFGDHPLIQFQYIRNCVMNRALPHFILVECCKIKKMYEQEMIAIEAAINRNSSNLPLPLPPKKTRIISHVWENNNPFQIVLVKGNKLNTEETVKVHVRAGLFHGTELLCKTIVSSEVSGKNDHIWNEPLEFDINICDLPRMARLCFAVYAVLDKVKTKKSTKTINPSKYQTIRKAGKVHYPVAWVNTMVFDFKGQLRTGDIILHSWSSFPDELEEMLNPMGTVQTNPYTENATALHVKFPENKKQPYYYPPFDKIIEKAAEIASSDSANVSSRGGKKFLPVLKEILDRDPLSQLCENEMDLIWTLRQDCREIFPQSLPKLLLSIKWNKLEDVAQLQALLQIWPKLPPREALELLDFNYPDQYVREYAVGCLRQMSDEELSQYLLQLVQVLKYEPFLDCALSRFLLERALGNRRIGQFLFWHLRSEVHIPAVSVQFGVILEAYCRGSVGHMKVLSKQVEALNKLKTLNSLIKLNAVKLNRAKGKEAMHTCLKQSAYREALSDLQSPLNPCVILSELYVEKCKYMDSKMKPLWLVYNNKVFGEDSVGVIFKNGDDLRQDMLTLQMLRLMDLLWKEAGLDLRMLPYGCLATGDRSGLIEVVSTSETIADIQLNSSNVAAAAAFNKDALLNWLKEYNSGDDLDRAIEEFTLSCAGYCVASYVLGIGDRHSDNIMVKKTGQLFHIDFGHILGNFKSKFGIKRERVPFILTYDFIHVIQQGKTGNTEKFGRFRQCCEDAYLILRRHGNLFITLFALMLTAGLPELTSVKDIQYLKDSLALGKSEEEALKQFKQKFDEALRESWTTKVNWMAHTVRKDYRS
PI3K β, sequence (P27986 whole entry partner): as the sequence (P27986 whole entry partner) above
PI3K γ, sequence (P48736 whole entry): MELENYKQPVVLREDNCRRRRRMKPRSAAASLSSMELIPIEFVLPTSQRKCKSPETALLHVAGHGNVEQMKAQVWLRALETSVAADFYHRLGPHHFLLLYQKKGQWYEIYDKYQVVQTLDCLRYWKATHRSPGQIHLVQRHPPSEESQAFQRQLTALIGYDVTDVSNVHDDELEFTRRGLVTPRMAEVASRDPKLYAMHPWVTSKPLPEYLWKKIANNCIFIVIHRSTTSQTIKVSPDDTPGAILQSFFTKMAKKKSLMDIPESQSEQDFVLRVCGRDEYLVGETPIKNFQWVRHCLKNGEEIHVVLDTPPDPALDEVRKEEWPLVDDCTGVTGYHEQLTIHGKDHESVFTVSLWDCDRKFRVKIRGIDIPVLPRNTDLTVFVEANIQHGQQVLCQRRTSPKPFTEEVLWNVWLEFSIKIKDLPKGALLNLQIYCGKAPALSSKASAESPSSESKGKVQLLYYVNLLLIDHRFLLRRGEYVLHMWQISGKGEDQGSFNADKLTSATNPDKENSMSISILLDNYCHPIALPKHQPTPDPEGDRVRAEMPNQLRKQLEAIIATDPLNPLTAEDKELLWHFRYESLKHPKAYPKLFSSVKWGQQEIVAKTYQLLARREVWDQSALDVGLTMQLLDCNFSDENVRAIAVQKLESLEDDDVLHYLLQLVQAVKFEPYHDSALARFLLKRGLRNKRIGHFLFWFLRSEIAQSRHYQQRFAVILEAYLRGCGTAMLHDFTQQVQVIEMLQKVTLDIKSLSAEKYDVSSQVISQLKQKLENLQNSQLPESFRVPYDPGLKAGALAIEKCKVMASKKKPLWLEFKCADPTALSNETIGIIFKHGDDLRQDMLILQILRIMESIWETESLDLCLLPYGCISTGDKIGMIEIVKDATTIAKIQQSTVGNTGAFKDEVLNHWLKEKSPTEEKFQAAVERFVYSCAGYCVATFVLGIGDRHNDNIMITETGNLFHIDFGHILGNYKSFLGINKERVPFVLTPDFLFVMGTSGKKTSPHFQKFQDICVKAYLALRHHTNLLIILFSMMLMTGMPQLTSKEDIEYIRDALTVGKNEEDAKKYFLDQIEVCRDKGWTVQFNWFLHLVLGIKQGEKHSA
PI3K α, sequence (P42336 whole entry): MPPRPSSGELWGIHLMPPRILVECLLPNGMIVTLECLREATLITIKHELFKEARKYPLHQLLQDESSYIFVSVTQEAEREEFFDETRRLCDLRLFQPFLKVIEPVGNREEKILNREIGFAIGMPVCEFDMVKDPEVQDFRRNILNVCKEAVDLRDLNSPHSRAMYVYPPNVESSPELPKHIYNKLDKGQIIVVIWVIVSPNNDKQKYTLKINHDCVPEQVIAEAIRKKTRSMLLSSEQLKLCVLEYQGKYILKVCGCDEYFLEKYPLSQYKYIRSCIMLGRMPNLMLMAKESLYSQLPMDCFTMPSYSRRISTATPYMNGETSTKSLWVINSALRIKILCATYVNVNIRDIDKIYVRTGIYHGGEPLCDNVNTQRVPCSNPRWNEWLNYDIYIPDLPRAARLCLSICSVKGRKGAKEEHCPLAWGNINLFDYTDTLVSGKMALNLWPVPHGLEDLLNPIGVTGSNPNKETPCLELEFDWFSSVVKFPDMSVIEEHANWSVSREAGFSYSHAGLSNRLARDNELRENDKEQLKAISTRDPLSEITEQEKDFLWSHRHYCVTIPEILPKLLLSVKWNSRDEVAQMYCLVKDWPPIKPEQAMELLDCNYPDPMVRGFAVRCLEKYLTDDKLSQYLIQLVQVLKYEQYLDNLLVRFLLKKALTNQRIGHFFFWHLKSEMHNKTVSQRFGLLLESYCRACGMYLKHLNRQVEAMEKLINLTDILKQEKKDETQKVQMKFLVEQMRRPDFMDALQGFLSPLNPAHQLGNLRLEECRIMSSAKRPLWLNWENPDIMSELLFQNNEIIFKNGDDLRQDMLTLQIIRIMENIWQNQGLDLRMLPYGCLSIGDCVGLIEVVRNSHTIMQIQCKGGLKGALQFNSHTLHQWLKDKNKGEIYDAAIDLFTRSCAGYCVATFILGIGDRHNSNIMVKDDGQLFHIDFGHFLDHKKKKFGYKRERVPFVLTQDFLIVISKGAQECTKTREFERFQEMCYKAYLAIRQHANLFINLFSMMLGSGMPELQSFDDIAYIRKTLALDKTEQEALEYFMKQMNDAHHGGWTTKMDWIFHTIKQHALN
PI3K α, sequence (P27986 whole entry partner): as the sequence (P27986 whole entry partner) above
Method for PI3K β: (§1) An exemplary system is PI 3-Kinase (human) HTRF™ Assay from Upstate. […] Briefly, the assay is a time resolved FRET assay that indirectly measures PIP3 product formed by the activity of a PI3-K. The kinase reaction is performed in a microtitre plate (e.g., a 384 well microtitre plate). The total reaction volume is approximately 20 ul per well. In the first step, each well receives 2 ul of test compound in 20% dimethylsulphoxide resulting in a 2% DMSO final concentration. Next, approximately 14.5 ul of a kinase/PIP2 mixture (diluted in 1× reaction buffer) is added per well for a final concentration of 0.25-0.3 ug/ml kinase and 10 μM PIP2. The plate is sealed and incubated for 15 minutes at room temperature. To start the reaction, 3.5 ul of ATP (diluted in 1× reaction buffer) is added per well for a final concentration of 10 μM ATP. The plate is sealed and incubated for 1 hour at room temperature. The reaction is stopped by adding 5 ul of Stop Solution per well and then 5 ul of Detection Mix is added per well. The plate is sealed, incubated for 1 hour at room temperature, and then read on an appropriate plate reader. Data is analyzed and IC50s are generated using GraphPad Prism 5. For PI3K α, β, δ, and γ, the nM concentration of inhibitor to reach IC50 is provided.
Method for PI3K γ: as §1

On to `Nc1nsc2ccc(-c3ccc4nccc(-c5ccncc5)c4c3)cc12` [Compound 12], for which the pIC50 on PI3K α, against PI3K β, on PI3K δ and at PI3K γ was below 5.00 each time.

As to `CN1CC(C(=O)N2CCC(Nc3ncnc4ccc(-c5ccc6oc(N)nc6c5)cc34)CC2)C1`, the pIC50 against PI3K α is above 7.00; at PI3K β, above 6.00; against PI3K δ, above 7.00; on PI3K γ, above 6.00.

With `Nc1nc2cc(-c3ccc4ncn(C5CCNCC5)c(=O)c4c3)ccc2o1`, the pIC50 on PI3K α is above 7.00; on PI3K β, above 5.00; at PI3K δ, below 5.00; on PI3K γ, above 5.00.

With `Nc1nc2cc(-c3ccc4ncc(C(=O)N5CCC(N6CCOCC6)CC5)n4c3)ccc2o1`, the pIC50 against PI3K α is above 6.00; against PI3K β, above 5.00; at PI3K δ, above 5.00; on PI3K γ it was above 5.00.

`Nc1nc2cc(-c3ccc4ncn(CCO)c(=O)c4c3)ccc2o1`: the pIC50 is above 7.00 at PI3K α, above 5.00 against PI3K β, below 5.00 on PI3K δ and above 6.00 at PI3K γ.

In the case of `CCN(CC)c1cnc2ccc(-c3ccc4oc(N)nc4c3)nc2n1`, the negative logarithm of the IC50 (pIC50) against PI3K α was above 6.00; at PI3K β, below 5.00; against PI3K δ, above 5.00; at PI3K γ, above 6.00.

In the case of `Nc1nc2cc(-c3ccc4ncc(N5CC(N6C7CCC6COC7)C5)cc4n3)ccc2o1`, the pIC50 against PI3K α is above 7.00; at PI3K β, below 5.00; at PI3K δ, above 5.00; at PI3K γ, above 6.00.

Turning to `CC(C)(C)N1CCN(c2cnc3ccc(-c4ccc5oc(N)nc5c4)cc3n2)CC1`, the pIC50 against PI3K α is above 7.00; against PI3K β, above 6.00; against PI3K δ it was above 6.00; on PI3K γ, above 6.00.

As for `CN1CCN(c2cnc3ccc(-c4ccc5sc(N)nc5c4)cc3n2)CC1`, the negative logarithm of the IC50 (pIC50) was above 6.00 at PI3K α, above 7.00 against PI3K β, below 5.00 against PI3K δ and above 5.00 on PI3K γ.

Regarding `Nc1nc2ccc(-c3ccc4ncc(N5CCOCC5)nc4c3)cc2o1`, the pIC50 against PI3K α is above 7.00; against PI3K β, above 6.00; against PI3K δ it was below 5.00; at PI3K γ it was above 6.00.

For the molecule `CN1CCC(N(C)C(=O)c2cnc3ccc(-c4ccc5oc(N)nc5c4)cn23)CC1`, the pIC50 at PI3K α is above 6.00; at PI3K β, above 5.00; against PI3K δ, above 5.00; at PI3K γ, below 5.00.

Regarding `CCOC(=O)N1CC=C(c2cnc3ccc(-c4ccc5oc(N)nc5c4)nc3n2)CC1`, the pIC50 at PI3K α was above 7.00; on PI3K β, above 5.00; at PI3K δ, above 5.00; at PI3K γ, above 7.00.

Consider `CS(=O)(=O)N1CCN(c2cnc3ccc(-c4ccc5oc(N)nc5c4)cc3n2)CC1`, for which the pIC50 against PI3K α is above 7.00; on PI3K β, above 6.00; against PI3K δ it was above 6.00; on PI3K γ it was above 7.00.

Regarding `Nc1nc2cc(-c3ccc4ncnc(NC5CCN(C(=O)C6CC6)CC5)c4c3)ccc2o1`, the pIC50 on PI3K α was above 7.00; against PI3K β it was above 5.00; against PI3K δ, above 7.00; at PI3K γ it was above 7.00.

On to `Nc1nc2cc(-c3ccc4ncc(N5CCC(N)CC5)nc4c3)ccc2o1`, for which the pIC50 is above 7.00 against PI3K α, above 6.00 at PI3K β, above 5.00 at PI3K δ and below 5.00 on PI3K γ.

On to `Nc1nc2cc(-c3ccc4ncc(N5CCN(CCO)CC5)nc4c3)ccc2o1`, for which the pIC50 against PI3K α is above 7.00; at PI3K β, above 7.00; against PI3K δ, above 5.00; at PI3K γ it was above 6.00.

In the case of `Nc1nc2cc(-c3ccc4ncc(C(=O)N5CCOCC5)n4n3)ccc2o1`, the pIC50 against PI3K α was above 6.00; at PI3K β, above 5.00; on PI3K δ it was below 5.00; on PI3K γ, above 6.00.

`CC(N)C(=O)N1CCN(c2cnc3ccc(-c4ccc5oc(N)nc5c4)cc3n2)CC1` (stereo not drawn): the pIC50 is above 7.00 against PI3K α, above 6.00 on PI3K β, above 6.00 on PI3K δ and above 5.00 at PI3K γ.

For `Nc1nc2cc(-c3cnc4ncc(-c5ccncc5)n4c3)ccc2o1`, the pIC50 against PI3K α, against PI3K β, on PI3K δ and on PI3K γ was below 5.00 throughout.

In the case of `Cc1nc2ccc(-c3ccc4oc(N)nc4c3)cn2c1C(=O)N1CCOCC1`, the pIC50 against PI3K α, on PI3K β, against PI3K δ and on PI3K γ was below 5.00 in each case.

For `Cc1nccn1-c1cnc2ccc(-c3ccc4oc(N)nc4c3)cc2n1`, the pIC50 on PI3K α is above 7.00; against PI3K β it was above 6.00; against PI3K δ it was above 5.00; on PI3K γ it was above 7.00.

For the molecule `Nc1nc2cc(-c3ccc4ncc(C(=O)N5CCOCC5)n4c3)ccc2s1`, the negative logarithm of the IC50 (pIC50) against PI3K α was above 6.00; against PI3K β it was above 5.00; on PI3K δ, below 5.00; on PI3K γ it was above 6.00.

In the case of `Nc1nc2cc(-c3ccc4ncc(-c5ccc(N6CCOCC6)nc5)nc4c3)ccc2o1`, the negative-log IC50 (pIC50) against PI3K α was above 5.00; against PI3K β, below 5.00; at PI3K δ, below 5.00; on PI3K γ it was below 5.00.

Turning to `Nc1nc2cc(-c3ccc4ncc(N5CCOCC5)nc4c3)ccc2s1`, the pIC50 on PI3K α was above 7.00; on PI3K β, above 6.00; at PI3K δ, below 5.00; on PI3K γ, above 6.00.

For `CS(=O)(=O)N1CCC(Nc2ncnc3ccc(-c4ccc5oc(N)nc5c4)cc23)CC1`, the pIC50 against PI3K α is above 7.00; against PI3K β it was above 6.00; against PI3K δ, above 7.00; at PI3K γ, above 7.00.

Regarding `Nc1nc2ccc(-c3ccc4ncc(C(=O)N5CCOCC5)n4c3)cc2s1`, the pIC50 against PI3K α is above 6.00; on PI3K β, below 5.00; on PI3K δ, above 5.00; on PI3K γ, above 6.00.

For `CN1CCN(C(=O)c2cnc3ccc(-c4ccc5oc(N)nc5c4)cc3n2)CC1`, the pIC50 is above 5.00 against PI3K α, below 5.00 against PI3K β, below 5.00 against PI3K δ and below 5.00 on PI3K γ.

In the case of `CNC(=O)N1CCN(c2cnc3ccc(-c4ccc5oc(N)nc5c4)cc3n2)CC1`, the negative-log IC50 (pIC50) against PI3K α is above 7.00; at PI3K β it was above 6.00; against PI3K δ, above 5.00; at PI3K γ, above 7.00.

On to `Nc1nc2ccc(-c3ccc4ncc(N5CCOCC5)nc4c3)cc2s1`, for which the pIC50 on PI3K α is above 7.00; against PI3K β it was below 5.00; at PI3K δ, below 5.00; at PI3K γ it was above 6.00.

Regarding `CC(C)N1CCN(C2CN(c3cnc4ccc(-c5ccc6oc(N)nc6c5)nc4n3)C2)CC1`, the negative-log IC50 (pIC50) against PI3K α is above 5.00; against PI3K β, below 5.00; on PI3K δ it was below 5.00; on PI3K γ, below 5.00.

With `CS(=O)(=O)N1CCC(Nc2cnc3ccc(-c4ccc5oc(N)nc5c4)cc3n2)CC1`, the pIC50 was above 7.00 against PI3K α, above 5.00 against PI3K β, above 7.00 at PI3K δ and above 7.00 at PI3K γ.

`Nc1nc2cc(-c3ccc4ncc(N5CCCC5)nc4c3)ccc2o1`: the pIC50 is above 7.00 at PI3K α, above 6.00 on PI3K β, above 6.00 at PI3K δ and above 7.00 on PI3K γ.

As for `CS(=O)(=O)CCN1CCN(c2cnc3ccc(-c4ccc5oc(N)nc5c4)cc3n2)CC1`, the pIC50 was above 7.00 at PI3K α, above 6.00 at PI3K β, above 5.00 against PI3K δ and above 6.00 on PI3K γ.
